{
  "source": "patent US20250204535A1",
  "about": "“Rodenticide” (priority 2022, published 2025)",
  "key": {"[1]": {"conditions": "dogs; study of 2020 (Seljetun et al); cited from earlier work"}, "[2]": {"system": "Caco-2 cells", "experiment": "Caco-2 permeability assay (bi-directional)", "conditions": "positive control", "description": "Cells were seeded on to Millipore Multiscreen Transwell plates at 1×10^5 cells/cm^2. The cells were cultured in DMEM and media was changed every two or three days. On day 20, the permeability study was performed. […] On the day of the assay, the monolayers were prepared by rinsing both basolateral and apical surfaces twice with Hanks Balanced Salt Solution (HBSS) at the desired pH warmed to 37° C. Cells were then incubated with HBSS at the desired pH in both apical and basolateral compartments for 40 min to stabilise physiological parameters.\nThe fluorescent integrity marker lucifer yellow was also included in the dosing solution. Analytical standards were prepared from test compound water dilutions and transferred to buffer, maintaining a ≤1% v/v water concentration. Assay buffer was composed of supplemented HBSS pH 7.4.\nFor assessment of apical to basolateral (A2B) permeability, HBSS was removed from the apical compartment and replaced with test compound dosing solution. The apical compartment insert was then placed into a companion plate containing fresh buffer (containing ≤1% v/v Water). For assessment of B2A permeability, HBSS was removed from the companion plate and replaced with test compound dosing solution. Fresh buffer (containing ≤1% v/v Water) was added to the apical compartment insert, which was then placed into the companion plate.\nAt 120 min, the apical compartment inserts and the companion plates were separated, and apical and basolateral samples diluted for analysis. Test compound permeability was assessed in duplicate. Compounds of known permeability characteristics were run as controls on each assay plate.\nTest and control compounds were quantified by LC-MS/MS cassette analysis using a 7-point calibration with appropriate dilution of the samples. Cyprotex generic analytical conditions were used. The starting concentration (CO) was determined from the dosing solution and the experimental recovery calculated from CO and both apical and basolateral compartment concentrations.\nThe integrity of the polarised cell monolayers throughout the experiment was checked by monitoring lucifer yellow permeation using fluorometric analysis. Permeation of this paracellular marker is low if monolayers have not been damaged. […] If this was not the case, then the result from the affected monolayer was excluded.\nThe determined concentration (nM≡pmol/mL) of each test sample receiver well is multiplied by the volume of the receiver compartment (apical=0.09 mL, basolateral=0.210 mL) to calculate the amount (pmol) of probe substrate permeating the monolayer.\nWhere dQ/dt is the rate of permeation of the drug across the cells, C0 is the donor compartment concentration at time zero and A is the area of the cell monolayer. C0 was obtained from analysis of the dosing solution.\nAn efflux ratio (ER) was calculated from mean A to B and B to A data. This is derived from:\nPercentage recovery (mass balance) of the test compound or positive control substrate was calculated by dividing the sum of the amount (pmol) in the receiver and donor compartments post-incubation by the amount in the initial donor solution at time zero (C0) and expressing as a percentage.\nThe insert was inserted into the well of a plate to form an Apical chamber (above cells) and basolateral chamber (below cells), with a permeable membrane between the two layers. Compound was then added to either the apical or basolateral chamber and the passage of it monitored into the other chamber. Transfer of the test compound from the apical to basolateral chamber was indicative of cellular uptake, simulating transition of the compound from the intestinal lumen to the bloodstream by uptake receptors (Direction A). […] An Efflux ratio was then calculated from the values obtained for A2B and B2A transmission."}, "[3]": {"system": "Neonatal rat cardiomyocytes", "experiment": "Screening purified venom fractions for rat cardiomyocyte toxicity (resazurin)", "format": "cell-based", "description": "(§1) Hearts were collected from euthanised 1-2-day old neonatal rat pups and transferred into filter sterilised ice-cold Hanks balanced salt solution (HBSS) containing 2% Pen-strep. Hearts were washed in the HBSS, any non-heart tissue removed and then cut into 1-3 mm pieces and placed in 40 ml filter sterilised, ice cold 0.1% trypsin/HBSS. The heart pieces in trypsin were place in a large ice bucket and incubated overnight at 4° C. on a rocker with gentle agitation to allow the tissue to digest.\nThe following day, all trypsin was aspirated from the tissue and the tissue transferred evenly into 2 ml Eppendorf tubes. The tissue was then digested further using a 37° C. 1 mg/ml collagenase/HBSS (filter sterilised) solution. […]\n(§2) Neonatal rat cardiomyocytes and cardiac fibroblasts were treated with purified venom fractions suspected of being cardiotoxins at doses of 12.5, 7.5, 6 μg/ml, with rat cardiomyocytes being treated at additional concentrations of 3.5, 2.5, 1 and 0.5 μg/ml for 2 hs in a humidified incubator at 37° C., 5% CO2. […] The change in fluorescence of the resazurin dye was monitored over a 5 h timeframe using a BMG Fluostar plate reader. Percent inhibition of both cell types in response to each fraction at each dose were calculated and plotted graphically."}, "[4]": {"system": "neonatal rat cardiac fibroblast cells", "experiment": "Screening purified venom fractions for rat cardiac fibroblast toxicity (resazurin)", "format": "cell-based", "description": "as §1\nThe following day, all trypsin was aspirated from the tissue and the tissue transferred evenly into 2 ml Eppendorf tubes. The tissue was then digested further using a 37° C. 1 mg/ml collagenase/HBSS (filter sterilised) solution. For each collagenase digestion, 2 ml of enzyme buffer was added to all Eppendorf tubes and the tubes incubated in a 37° C. heating block for 2 mins with 400 rpm agitation. The supernatant from the first two digestions was discarded. After each of the following digestion steps, the tissue was gently triturated using a pipette to release cells. Once trituration was complete the supernatant was retained, added to a tube containing 10 ml cell culture media and stored on ice.\nAll cell containing supernatants were filtered through a 250 μm cell strainer to remove any potentially undigested tissue and myocytes separated from cardiac fibroblast by spinning the supernatant at 1800 g for 45 mins through a Percoll gradient. […]\nas §2"}, "[5]": {"system": "Neonatal rat cardiomyocytes", "experiment": "Screening purified venom fractions for alterations to cardiomyocyte beat rates", "format": "cell-based", "conditions": "for Highest Achieved Fold Increases in Beat Rate: 1 h; for fold increases to beat rate: dose of 6 μg/ml", "description": "Neonatal rat cardiomyocytes were isolated as via standard protocol and seeded at a density of 100,000 cells/96 well. Once myocyte cultures were beating spontaneously in uniform sheets, they were videoed well-by-well using a microscope camera to determine pre-dose beat rates/min. […] Cells were incubated in each fraction in a humidified incubator at 37° C., 5% CO2 for 1 h. After 1 h videos of the cells were re-recorded to obtain the post-dosing beat rate/minute. Fold changes in beat frequency were calculated for each dosed well pair."}, "[6]": {"system": "Human IPSC-derived cardiomyocytes", "experiment": "Six lead fractions: toxicity to human IPSC-derived cardiomyocytes (resazurin)", "format": "cell-based", "conditions": "for cytotoxicity against human IPSC-derived cardiomyocytes: 7.5, 6, 3.5, 2.5 and 1 μg/ml, 2 h, FIG. 3", "description": "Human IPSC-derived cardiomyocytes were purchased from Axol Biosciences and cultured as via their standard methodology. Briefly, cells were recovered from liquid nitrogen storage when required and the cells transferred dropwise into 10 ml of pre-warmed (37° C.) plating media (cardiomyocyte maintenance media+10% FCS+10 μM ROCK inhibitor). Cells were centrifuged at 200×g for 5 mins at room temperature. The supernatant was aspirated from the cell pellet and the cell pellet gently resuspended in 1 ml plating media. Cells were counted using a haemocytometer and trypan blue staining. Cells were plated at a seeding density of 10-20,000 cells/well in fibronectin pre-coated 384 well plates. Cells were incubated at 37° C., 5% CO2 in a humidified incubator overnight before the plating media was removed the following day and replace with fresh maintenance media (No FCS, no ROCK inhibitor). Partial media changes were performed every 2-days until cells formed a single continuous sheet of spontaneously beating cardiomyocytes (7-10 day in culture).\nOnce beating spontaneously, cells were treated with the six lead fractions diluted in maintenance media to final working concentrations of 7.5, 6, 3.5, 2.5 and 1 μg/ml. 30 μl of each fraction dilution was added to triplicate wells of cells and incubated for 2 h at 37° C., 5% CO2 in a humidified incubator. After 2 h, resazurin dye at a final working concentration of 160 μM were added to all wells and the change in fluorescence of the plate monitored over a 5 h timeframe using a BMG Labtech Fluostar plate reader. Percent toxicity was calculated from triplicate wells at each dose and plotted graphically.\nHuman IPSC derived cardiomyocytes were dosed in triplicate with a serial dilution of each of the six venom fractions (7.5, 6, 3.5, 2.5 and 1 μg/ml) for 2 hs at 37° C., 5% CO2 before resazurin dye was added and the change in colour and fluorescence monitored for the following 5 hrs. Percentage toxicity was calculated for each fraction at all doses and plotted graphically (FIG. 3)."}, "[7]": {"system": "rat neonatal cardiomyocyte cells", "format": "cell-based", "conditions": "6 μg/ml, rat cardiomyocytes", "description": "Thermal stability of the six lead fractions was investigated. Aliquots of each fraction were heated in a heat block to 37° C. (unheated), 60° C., 80° C. and 100° C. before being used to treat rat neonatal cardiomyocyte cells at a dose of 6 μg/ml. Cardiomyocyte toxicity was assessed after 24 hrs of dosing at each temperature against a similar aliquot of each fraction that had been unheated before dosing. After 24 h, 160 μM Resazurin dye was added to all cells and the change in cardiomyocyte cell viability/metabolism monitored every hour up to 5 h post dye addition. An additional measurement was recorded 24 hs after the dye had been added."}, "[8]": {"conditions": "any of the tested doses, up to 12.5 μg/ml"}},
  "note": "Marks after values point to notes of the source that are not given here.",
  "data": [
    {"compound": "O=c1oc2ccccc2c(O)c1C1CC(c2ccc(-c3ccc(Br)cc3)cc2)Cc2ccccc21", "note": "(stereo not shown) [Brodifacoum, 3-[3-(4′-bromobiphenyl-4-yl)-1,2,3,4-tetrahydronaphth-1-yl]-4-hydroxycoumarin]", "values": [
      {"measurement": "time present in dog faeces after a single ingestion", "setting": "[1]", "result": "more than 700 days"}
    ]},
    {"compound": "O=c1oc2ccccc2c(O)c1C1CC(c2ccc(-c3ccccc3)cc2)Cc2ccccc21", "note": "(stereo not shown) [Difenacoum, 3-[3-p-diphenyl-1,2,3,4-hydronaphth-1-yl]-4-hydroxycoumarin]", "values": [
      {"measurement": "time present in dog faeces after a single ingestion", "setting": "[1]", "result": "> 650", "unit": "days"}
    ]},
    {"compound": "C[C@]12CC[C@@H]3c4ccc(OS(=O)(=O)O)cc4CC[C@H]3[C@@H]1CCC2=O", "note": "[Estrone 3-sulfate, estrone 3-sulfate]", "values": [
      {"measurement": "Mean % Recovery", "setting": "[2]; A2B", "result": 68.6, "unit": "%"},
      {"measurement": "Papp Mean", "setting": "[2]; A2B, 120 min, pH 7.4", "result": "0.225 ×10^−6 cms^−1"},
      {"measurement": "Papp Rep 1", "setting": "[2]; A2B, 120 min, pH 7.4", "result": "0.225 ×10^−6 cms^−1"},
      {"measurement": "Mean % Recovery", "setting": "[2]; B2A", "result": 85.7, "unit": "%"},
      {"measurement": "Papp Mean", "setting": "[2]; B2A, 120 min, pH 7.4", "result": "34.9 ×10^−6 cms^−1"},
      {"measurement": "Papp Rep 1", "setting": "[2]; B2A, 120 min, pH 7.4", "result": "33.1 ×10^−6 cms^−1"},
      {"measurement": "Papp Rep 2", "setting": "[2]; B2A, 120 min, pH 7.4", "result": "36.6 ×10^−6 cms^−1"},
      {"measurement": "ER (efflux ratio)", "setting": "[2]; from mean A to B and B to A data", "result": "155 ^b"}
    ]},
    {"compound": "N.aan_I15_R4 (LKCHKLVPPVWKTCPEGKNLCYKMFMVSTSTVPVKRGCIDVCPKDSALVKYVCCSTDKCN)", "values": [
      {"measurement": "toxicity to rat cardiomyocytes (in words)", "setting": "[3]; [8]", "result": "no visibly or detectible toxicity"},
      {"measurement": "toxicity to cardiac fibroblasts (in words)", "setting": "[4]; [8]", "result": "no visibly or detectible toxicity"},
      {"measurement": "Highest Achieved Fold Increases in Beat Rate", "setting": "[5]; Dose 6 μg/ml", "result": 3.50, "unit": "fold"},
      {"measurement": "fold increases to beat rate", "setting": "[5]", "result": "greater than 3.5 fold"},
      {"measurement": "cytotoxicity against human IPSC-derived cardiomyocytes", "setting": "[6]", "result": "no observable cardiomyocyte cellular toxicity"},
      {"measurement": "cytotoxicity against human IPSC-derived cardiomyocytes", "setting": "[6]; listed as N.ann_I15_R4", "result": "low levels of cytotoxicity"},
      {"measurement": "reduction of cardiomyocyte toxicity after heating", "setting": "[7]; fraction heated at 100° C. vs 37° C., 24 h", "result": "~10", "unit": "%"}
    ]},
    {"compound": "N.atr_I28_R3 (LKCNKLVPLFYKTCPAGKNLCYKMFMVSNLTVPVKRGCIDVCPKSSLLVKYVCCNTDRCN)", "values": [
      {"measurement": "Highest Achieved Fold Increases in Beat Rate", "setting": "[5]; Dose 6 μg/ml", "result": 5.35, "unit": "fold"},
      {"measurement": "fold increases to beat rate", "setting": "[5]", "result": "greater than 5 fold"},
      {"measurement": "toxicity in human IPSC-derived cells compared to rodent cardiomyocytes", "setting": "[6]; 3.5 μg/ml", "result": "reduction in toxicity"}
    ]},
    {"compound": "N.naj_I25_R3 (LKCNKLVPLFYKTCPAGKDLCYKMYMVATPKVPVKRGCIDVCPKSSLLVKYVCCNTDRCN)", "values": [
      {"measurement": "doses showing rat cardiomyocyte toxicity", "setting": "[3]; neonatal rat cardiomyocytes", "result": "≥ 6", "unit": "µg/mL"},
      {"measurement": "doses showing cardiac fibroblast toxicity", "setting": "[4]; neonatal rat cardiac fibroblasts", "result": 12.5, "unit": "µg/mL"},
      {"measurement": "Highest Achieved Fold Increases in Beat Rate", "setting": "[5]; Dose 3.5 μg/ml", "result": 13.75, "unit": "fold"},
      {"measurement": "fold increases to beat rate", "setting": "[5]", "result": "greater than 8.5 fold"},
      {"measurement": "thermal stability (change in cytotoxic activity after heating)", "setting": "[7]; 37, 60, 80, 100° C., FIG. 4", "result": "no significant changes in the activity"}
    ]}
  ]
}
